Tests used:
Assay in all cases: KINOMEscan competitive binding
[1] = target: T1, TYRO3 (Homo sapiens, UniProt Q06418); conditions: n=1, read-out: Percent inhibition, TYRO3
T1 construct: purchased DiscoverX (KINOMEscan)
T1 sequence (Q06418 41-890): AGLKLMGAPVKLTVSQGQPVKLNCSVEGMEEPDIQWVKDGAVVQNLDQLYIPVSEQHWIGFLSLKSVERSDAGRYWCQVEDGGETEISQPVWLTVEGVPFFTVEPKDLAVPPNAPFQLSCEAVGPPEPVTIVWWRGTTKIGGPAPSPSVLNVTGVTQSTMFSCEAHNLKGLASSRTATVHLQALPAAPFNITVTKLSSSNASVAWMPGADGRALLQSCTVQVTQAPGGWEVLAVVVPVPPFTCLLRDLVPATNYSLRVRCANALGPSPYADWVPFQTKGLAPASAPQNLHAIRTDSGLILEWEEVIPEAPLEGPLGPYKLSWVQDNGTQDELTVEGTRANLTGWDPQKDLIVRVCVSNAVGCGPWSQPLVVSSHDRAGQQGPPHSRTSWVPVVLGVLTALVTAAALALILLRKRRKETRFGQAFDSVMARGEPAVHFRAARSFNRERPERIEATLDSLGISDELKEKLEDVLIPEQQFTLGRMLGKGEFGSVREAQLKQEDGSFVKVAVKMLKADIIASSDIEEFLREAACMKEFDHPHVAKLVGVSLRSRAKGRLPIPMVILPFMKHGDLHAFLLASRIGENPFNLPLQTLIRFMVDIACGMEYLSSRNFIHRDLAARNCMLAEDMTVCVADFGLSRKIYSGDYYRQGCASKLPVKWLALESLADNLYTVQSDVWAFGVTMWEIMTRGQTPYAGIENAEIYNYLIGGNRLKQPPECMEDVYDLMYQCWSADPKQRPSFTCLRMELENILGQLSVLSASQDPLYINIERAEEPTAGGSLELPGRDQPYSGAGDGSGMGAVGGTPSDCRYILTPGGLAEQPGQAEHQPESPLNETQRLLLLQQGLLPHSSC

[2] = target: T2, RAF1 (Homo sapiens, UniProt P04049); conditions: n=1, read-out: Percent inhibition, RAF1
T2 construct: purchased DiscoverX (KINOMEscan)
T2 sequence (P04049 whole entry): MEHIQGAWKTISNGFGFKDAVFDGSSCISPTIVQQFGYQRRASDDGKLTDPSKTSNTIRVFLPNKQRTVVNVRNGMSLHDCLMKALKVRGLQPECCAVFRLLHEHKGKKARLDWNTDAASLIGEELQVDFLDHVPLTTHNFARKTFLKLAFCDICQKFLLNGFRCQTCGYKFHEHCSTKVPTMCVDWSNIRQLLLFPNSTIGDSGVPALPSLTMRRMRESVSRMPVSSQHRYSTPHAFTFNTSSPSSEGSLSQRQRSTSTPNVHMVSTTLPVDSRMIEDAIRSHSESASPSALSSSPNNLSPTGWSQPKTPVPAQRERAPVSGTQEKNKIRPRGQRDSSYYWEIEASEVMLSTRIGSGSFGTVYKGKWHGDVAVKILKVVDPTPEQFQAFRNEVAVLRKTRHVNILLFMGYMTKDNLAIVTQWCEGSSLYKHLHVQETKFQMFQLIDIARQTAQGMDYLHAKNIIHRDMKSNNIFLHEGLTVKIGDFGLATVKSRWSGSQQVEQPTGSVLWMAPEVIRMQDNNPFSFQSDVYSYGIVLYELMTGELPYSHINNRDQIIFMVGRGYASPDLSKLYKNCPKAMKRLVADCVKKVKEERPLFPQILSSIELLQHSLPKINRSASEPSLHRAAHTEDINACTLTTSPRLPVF

[3] = target: T3, STK36 (Homo sapiens, UniProt Q9NRP7); conditions: n=1, read-out: Percent inhibition, STK36
T3 construct: purchased DiscoverX (KINOMEscan)
T3 sequence (Q9NRP7 1-1315): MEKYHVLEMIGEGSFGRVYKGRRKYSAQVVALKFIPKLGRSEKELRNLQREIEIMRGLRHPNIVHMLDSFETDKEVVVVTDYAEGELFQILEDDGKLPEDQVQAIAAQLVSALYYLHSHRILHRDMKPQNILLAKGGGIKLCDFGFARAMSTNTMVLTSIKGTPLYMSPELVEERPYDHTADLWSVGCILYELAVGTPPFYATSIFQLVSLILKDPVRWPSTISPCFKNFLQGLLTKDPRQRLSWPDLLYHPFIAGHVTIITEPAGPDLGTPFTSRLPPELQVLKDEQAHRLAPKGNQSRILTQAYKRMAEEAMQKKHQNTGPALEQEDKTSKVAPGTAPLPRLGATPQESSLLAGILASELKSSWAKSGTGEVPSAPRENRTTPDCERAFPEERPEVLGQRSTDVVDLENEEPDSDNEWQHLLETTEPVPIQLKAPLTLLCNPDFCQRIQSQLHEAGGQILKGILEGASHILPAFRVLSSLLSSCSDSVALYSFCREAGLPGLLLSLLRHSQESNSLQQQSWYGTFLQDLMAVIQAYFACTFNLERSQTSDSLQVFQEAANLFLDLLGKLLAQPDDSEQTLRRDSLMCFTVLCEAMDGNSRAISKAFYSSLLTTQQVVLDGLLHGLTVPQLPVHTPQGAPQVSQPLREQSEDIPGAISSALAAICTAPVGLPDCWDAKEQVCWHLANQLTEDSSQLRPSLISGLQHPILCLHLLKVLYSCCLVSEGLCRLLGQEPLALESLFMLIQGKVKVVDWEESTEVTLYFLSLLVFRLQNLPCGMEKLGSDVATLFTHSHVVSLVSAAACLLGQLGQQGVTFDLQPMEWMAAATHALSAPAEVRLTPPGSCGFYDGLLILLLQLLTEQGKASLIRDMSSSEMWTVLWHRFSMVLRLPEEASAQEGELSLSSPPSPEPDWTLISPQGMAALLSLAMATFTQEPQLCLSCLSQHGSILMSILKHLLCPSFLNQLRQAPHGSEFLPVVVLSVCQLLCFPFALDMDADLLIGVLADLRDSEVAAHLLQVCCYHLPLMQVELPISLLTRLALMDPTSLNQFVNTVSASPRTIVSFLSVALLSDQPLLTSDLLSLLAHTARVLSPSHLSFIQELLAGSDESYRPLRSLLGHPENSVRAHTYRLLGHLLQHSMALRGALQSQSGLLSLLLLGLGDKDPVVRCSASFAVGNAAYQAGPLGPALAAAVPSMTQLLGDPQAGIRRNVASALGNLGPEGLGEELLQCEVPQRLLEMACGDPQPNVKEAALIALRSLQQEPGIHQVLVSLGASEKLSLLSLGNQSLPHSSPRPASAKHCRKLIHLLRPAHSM

Compound	inhibition at 10 µM [1]	inhibition at 10 µM [2]	inhibition at 10 µM [3]
Cc1ccc(O)cc1Nc1ccnc(Nc2cccc(C(N)=O)c2)n1 [Compound 3]	100%	74.3%	98.4%
Cc1ccc(O)cc1N(C)c1ccnc(Nc2cccc(S(N)(=O)=O)c2)n1 [Compound 4]	100%	94.2%	99.3%
CN1CCN(c2ccc(Nc3nccc(-c4cnn5ncccc45)n3)cc2C#N)CC1 [Compound 1]	70.2%	0%	100%
Clc1ccc(Nc2ncc(-c3ccccc3)s2)cc1 [Compound 10]	0%	0%	0%
Nc1ncc2c(-c3ccncc3)c[nH]c2n1 [Compound 11]	0%	0%	0%
Fc1cccc(COc2ccc(Nc3ncnc4c3CN(CCN3CCOCC3)CC4)cc2Cl)c1 [Compound 6]	0%	0%	0%
COc1ccc(Nc2nccc(-c3cnn4ncccc34)n2)cc1 [Compound 2]	0%	0%	98.8%
C[C@@H](Oc1cc(-c2cnc3ccccn23)sc1C(N)=O)c1ccccc1Cl [Compound 8]	0%	0%	0%
COc1cc(Nc2nccc(-c3sc(N)nc3-c3cccc(NC(=O)c4c(F)cccc4F)c3)n2)cc(OC)c1OC [Compound 7]	100%	100%	100%
c1ccc(COc2cccc(-c3ccnc4[nH]ccc34)c2)cc1 [Compound 9]	0%	0%	0%

— PMC9927415, “Tyrosine Kinase Inhibitors Display Potent Activity against Cryptosporidium parvum” (Microbiology Spectrum, 2022)
